These results are taken from US8173689B2 (Novartis AG, priority 2006, dated 2012).

One test concerns the target T1, kinase domain of cKIT (Homo sapiens, UniProt P10721).
T1 construct: The kinase domain of cKIT was assayed in 50 mM Hepes; purchased Upstate 14-559
In words: Inhibition of cKIT kinase signaling in an in vitro biochemical assay (alphascreen). The note with it: tested at about 1 μM, read-out: cKit percent inhibition.

The subject of test [1] is MNFS60 (murine AML cells). In words: Cell viability assay in MCSF dependent MNFS60 cells (Cell Titer Glo). It counts as cell-based. The note with it: Mus musculus, tested at about 1 μM, read-out: M-NFS-60 CP percent inhibition. An outline of the steps:
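3-fold DMSO dilution series (500× stocks); MCSF 10 ng/ml final; 72 hrs, 37° C., 5% CO2; CellTiter-Glo read-out; n=3; EC50 fitted.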

Test [2] concerns the target T2, full-length human CSF-1R receptor (Homo sapiens, UniProt P07333).
T2 construct: transfected with the full-length human CSF-1R receptor cloned in house; expressed in transfected cells; host or cells: HEK293H (Invitrogen Cat. #11631017)
As to the kind of experiment: In vitro inhibition of CSF-1R receptor tyrosine phosphorylation in transfected HEK293H cells stimulated with MCSF. It counts as cell-based. To be noted: HEK293-H, tested at about 1 μM, read-out: pCSF1R percent inhibition. Here is the method:
The lysate was then transferred to total CSF-1R antibody coated 96-well plates that had already been blocked with 3% Blocker A from Mesoscale discovery (MSD) for 2 hours and washed afterwards. Lysates were incubated overnight at 4° C. and the plates were then washed 4× with MSD Tris Wash Buffer. […] The plates were read on the Sector 6000 instrument (MSD). Raw data was imported in Abase and EC50s calculated with XL-fit data analysis software.

For test [3], the target named is T3, cytoplasmic domain of the human CSF-1R (Homo sapiens, UniProt P07333).
T3 construct: Recombinant protein corresponding to the cytoplasmic domain of the human CSF-1R; purchased Invitrogen Corporation, Carlsbad, Calif; PV3249
T3 sequence (P07333 539-972 limits assumed): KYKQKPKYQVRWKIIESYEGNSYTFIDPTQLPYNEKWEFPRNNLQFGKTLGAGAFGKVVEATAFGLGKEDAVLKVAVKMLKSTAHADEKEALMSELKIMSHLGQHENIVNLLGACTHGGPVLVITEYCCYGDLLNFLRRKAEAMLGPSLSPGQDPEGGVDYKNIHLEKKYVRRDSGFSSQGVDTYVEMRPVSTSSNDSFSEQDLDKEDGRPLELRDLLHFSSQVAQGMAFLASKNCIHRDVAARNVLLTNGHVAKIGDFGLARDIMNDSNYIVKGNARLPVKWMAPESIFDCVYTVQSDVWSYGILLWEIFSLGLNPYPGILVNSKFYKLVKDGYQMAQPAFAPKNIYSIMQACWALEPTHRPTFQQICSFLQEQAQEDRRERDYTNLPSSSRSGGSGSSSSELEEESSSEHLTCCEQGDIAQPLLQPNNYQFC
In words: In vitro kinase assay for colony stimulating factor-1 receptor (AlphaScreen). It counts as biochemical. The note with it: tested at about 1 μM, read-out: CSF-1R percent inhibition. The method, boiled down:
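At a low ATP level of 1 μM, phosphate transfer by the cytoplasmic-domain kinase (4 nM) was quantified with an AlphaScreen anti-phosphotyrosine bead pair.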
(Bead proximity is the source of the signal in Alpha formats.)

A further test deals with T4, kinase domain of PDGFRβ (Homo sapiens, UniProt P09619).
T4 construct: The kinase domain of PDGFRβ was assayed in 50 mM Hepes; purchased Invitrogen P3082
T4 sequence (P09619 600-962 limits assumed): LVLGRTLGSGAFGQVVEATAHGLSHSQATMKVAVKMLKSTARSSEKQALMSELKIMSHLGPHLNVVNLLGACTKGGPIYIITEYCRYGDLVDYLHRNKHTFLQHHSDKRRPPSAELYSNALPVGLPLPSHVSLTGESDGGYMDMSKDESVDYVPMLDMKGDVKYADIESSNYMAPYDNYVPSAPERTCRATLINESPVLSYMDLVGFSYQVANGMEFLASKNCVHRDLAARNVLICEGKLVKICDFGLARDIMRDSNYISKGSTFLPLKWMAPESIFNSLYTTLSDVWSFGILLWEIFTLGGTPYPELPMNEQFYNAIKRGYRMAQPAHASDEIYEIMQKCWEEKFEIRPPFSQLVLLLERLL
In words: Inhibition of PDGFRb kinase signaling in an in vitro biochemical assay (alphascreen). The note with it: tested at about 1 μM, read-out: PDGFRβ percent inhibition.

Structures are written as SMILES. Where two headings read alike, the source gives them in different places.

T1 sequence (P10721 589-937 limits assumed): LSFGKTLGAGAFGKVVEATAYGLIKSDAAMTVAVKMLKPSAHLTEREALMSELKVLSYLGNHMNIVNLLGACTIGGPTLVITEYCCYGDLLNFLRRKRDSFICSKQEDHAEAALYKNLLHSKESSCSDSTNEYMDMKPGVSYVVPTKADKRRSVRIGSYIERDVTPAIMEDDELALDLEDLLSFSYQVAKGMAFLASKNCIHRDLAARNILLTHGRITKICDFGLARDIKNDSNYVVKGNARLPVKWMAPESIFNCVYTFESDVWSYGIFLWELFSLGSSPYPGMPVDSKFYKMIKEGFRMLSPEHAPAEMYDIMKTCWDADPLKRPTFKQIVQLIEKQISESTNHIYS
T2 sequence (P07333 20-972): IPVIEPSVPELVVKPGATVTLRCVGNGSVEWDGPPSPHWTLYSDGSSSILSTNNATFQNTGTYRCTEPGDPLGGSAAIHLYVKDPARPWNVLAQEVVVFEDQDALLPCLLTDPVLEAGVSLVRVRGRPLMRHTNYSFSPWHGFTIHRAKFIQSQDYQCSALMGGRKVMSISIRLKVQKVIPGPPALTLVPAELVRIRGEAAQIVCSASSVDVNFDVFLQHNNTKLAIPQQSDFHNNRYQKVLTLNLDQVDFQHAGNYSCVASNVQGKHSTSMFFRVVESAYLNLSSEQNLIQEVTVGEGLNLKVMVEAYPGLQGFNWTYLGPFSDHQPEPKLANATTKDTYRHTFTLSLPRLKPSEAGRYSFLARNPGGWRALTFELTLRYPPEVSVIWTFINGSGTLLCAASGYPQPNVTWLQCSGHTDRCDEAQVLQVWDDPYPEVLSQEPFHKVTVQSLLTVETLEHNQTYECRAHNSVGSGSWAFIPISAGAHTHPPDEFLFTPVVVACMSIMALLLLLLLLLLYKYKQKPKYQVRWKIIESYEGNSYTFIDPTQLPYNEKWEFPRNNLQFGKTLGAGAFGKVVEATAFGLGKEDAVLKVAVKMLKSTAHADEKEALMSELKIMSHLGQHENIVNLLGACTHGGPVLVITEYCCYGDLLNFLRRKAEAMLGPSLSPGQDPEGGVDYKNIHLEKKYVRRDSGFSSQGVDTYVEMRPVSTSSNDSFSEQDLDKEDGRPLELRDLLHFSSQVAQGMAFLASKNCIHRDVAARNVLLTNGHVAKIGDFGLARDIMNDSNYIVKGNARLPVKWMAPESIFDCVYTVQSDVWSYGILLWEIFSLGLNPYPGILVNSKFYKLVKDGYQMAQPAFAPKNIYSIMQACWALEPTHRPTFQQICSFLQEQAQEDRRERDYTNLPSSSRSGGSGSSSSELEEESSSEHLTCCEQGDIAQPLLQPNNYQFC

As to `CNC(=O)c1cc(Oc2ccc3nc(NCc4ccc(=O)[nH]c4)sc3c2)ccn1` [Compound 89], the inhibition – broadly, how much of the control response was suppressed – at 1 µM on kinase domain of cKIT (compounds of Table 3) is 15%; in test [1] (compounds of Table 3), 15%; in test [2] (compounds of Table 3) it was 65%; in test [3] (compounds of Table 3) it was 100%; at kinase domain of PDGFRβ (compounds of Table 3) it was 2%.
Consider `CNC(=O)c1cc(Oc2ccc3nc(NCc4cccc(F)c4F)sc3c2)ccn1` [Compound 147, 4-[2-(2,3-Difluoro-benzylamino)-benzothiazol-6-yloxy]-pyridine-2-carboxylic acid methylamide], for which the inhibition at 1 µM was 90% at kinase domain of cKIT; 90% in test [1] (MNFS60 cells); 97% in test [2] (HEK293H cells); 98% in test [3]; 0% on kinase domain of PDGFRβ.
For the molecule `CNC(=O)c1cc(Oc2ccc3nc(NCc4ccccc4-n4cccn4)oc3c2)ccn1` [Compound 105, 4-[2-(2-Pyrazol-1-yl-benzyl-amino)-benzooxazol-6-yloxy]-pyridine-2-carboxylic acid methylamide], the inhibition at 1 µM on kinase domain of cKIT came to 22%; in test [1] (MNFS60 cells), 49%; in test [2] (HEK293H cells), 70%; in test [3] it was 99%; at kinase domain of PDGFRβ it was 8%.
For `CNC(=O)c1cc(Oc2ccc3nc(N[C@@H]4c5ccccc5C[C@@H]4O)sc3c2)ccn1` [Example 323, 4-(2-((1R,2S)-2-hydroxy-2,3-dihydro-1H-inden-1-ylamino)benzo[d]thiazol-6-yloxy)-N-methylpicolinamide], the inhibition at 1 µM at kinase domain of cKIT is 25%; in test [1] (MCSF dependent MNFS60 cells), 100%; in test [2] (HEK293H cells), 98%; in test [3], 100%; at kinase domain of PDGFRβ, 24%.
Regarding `C[C@H](Nc1nc2ccc(Oc3ccnc(-c4cnn(C)c4)c3)cc2s1)C1CCCCC1` [Cmpd 163, (S)-N-(1-cyclohexylethyl)-6-(2-(1-methyl-1H-pyrazol-4-yl)pyridin-4-yloxy)benzo[d]thiazol-2-amine], the inhibition at 1 µM is 32% on kinase domain of cKIT (compounds of Table 3); 100% in test [1] (compounds of Table 3); 99% in test [2] (compounds of Table 3); 100% in test [3] (compounds of Table 3); 39% on kinase domain of PDGFRβ (compounds of Table 3).
With `O[C@@H]1CCCC[C@H]1Nc1nc2ccc(Oc3ccnc4c(F)cccc34)cc2s1` [Example 263, (1R,2R)-2-(6-(8-fluoroquinolin-4-yloxy)benzo[d]thiazol-2-ylamino)cyclohexanol], the inhibition at 1 µM came out at 12% at kinase domain of cKIT (compounds of Table 3); 22% in test [1] (compounds of Table 3); 24% in test [2] (compounds of Table 3); 99% in test [3] (compounds of Table 3); 0% on kinase domain of PDGFRβ (compounds of Table 3).
As to `Nc1ncc(-c2cc(Oc3ccc4nc(N[C@@H]5CCCC[C@H]5O)sc4c3)ccn2)cn1` [Example 346, (1R,2R)-2-(6-(2-(2-aminopyrimidin-5-yl)pyridin-4-yloxy)benzo[d]thiazol-2-ylamino)cyclohexanol], the inhibition at 1 µM on kinase domain of cKIT is 13%; in test [1] (MCSF dependent MNFS60 cells), 67%; in test [2] (HEK293H cells), 84%; in test [3], 100%; at kinase domain of PDGFRβ, 0%.
The matching figures for `Cn1cc(-c2cc(Oc3ccc4nc(N[C@H]5CCCc6ccccc65)sc4c3)ccn2)cn1` [Example 362, (S)-6-(2-(1-methyl-1H-pyrazol-4-yl)pyridin-4-yloxy)-N-(1,2,3,4-tetrahydronaphthalen-1-yl)benzo[d]thiazol-2-amine]: 99%, 100%, 100%, 100% and 92%.
With `CNC(=O)c1cc(Oc2ccc3nc(N[C@@H]4CCCC[C@H]4NS(C)(=O)=O)sc3c2)ccn1` [Example 326, N-methyl-4-(2-((1R,2R)-2-(methylsulfonamido)cyclo-hexylamino)benzo[d]thiazol-6-yloxy)picolinamide], the inhibition at 1 µM at kinase domain of cKIT turned out to be 44%; in test [1] (MCSF dependent MNFS60 cells), 33%; in test [2] (HEK293H cells) it was 81%; in test [3], 65%; on kinase domain of PDGFRβ, 7%.
On to `CNC(=O)c1cc(Oc2ccc3nc(N[C@H]4CCCC[C@@H]4OCc4ccccc4)sc3c2)ccn1` [Compound 156, 4-[2-((1S,2S)-2-Benzyloxy-cyclohexylamino)-benzothiazol-6-yloxy]-pyridine-2-carboxylic acid methylamide], for which the inhibition at 1 µM amounted to 27% on kinase domain of cKIT; 63% in test [1] (MNFS60 cells); 16% in test [2] (HEK293H cells); 100% in test [3]; 41% at kinase domain of PDGFRβ.
The like results for `CNC(=O)c1cc(Oc2ccc3nc(NCc4c(OC)cccc4OC)sc3c2)ccn1` [Compound 145, 4-[2-(2,6-Dimethoxy-benzyl-amino)-benzothiazol-6-yloxy]-pyridine-2-carboxylic acid methylamide] were, in that order, 34%, 100%, 98%, 99% and 25%.
For the molecule `CNC(=O)c1cc(Oc2ccc3nc(NCc4ccccc4F)sc3c2)ccn1` [Compound 140, 4-[2-(2-Fluoro-benzylamino)-benzothiazol-6-yloxy]-pyridine-2-carboxylic acid methylamide], the inhibition at 1 µM on kinase domain of cKIT turned out to be 92%; in test [1] (MNFS60 cells) it was 52%; in test [2] (HEK293H cells) it was 90%; in test [3], 100%; on kinase domain of PDGFRβ, 0%.
As for `O[C@@H]1CCCC[C@H]1Nc1nc2ccc(Oc3ccnc(-c4cn[nH]c4)c3)cc2s1` [Example 360, (1R,2R)-2-(6-(2-(1H-pyrazol-4-yl)pyridin-4-yloxy)benzo[d]thiazol-2-ylamino)cyclohexanol], the inhibition at 1 µM at kinase domain of cKIT worked out at 29%; in test [1] (MCSF dependent MNFS60 cells), 100%; in test [2] (HEK293H cells), 98%; in test [3], 100%; at kinase domain of PDGFRβ it was 16%.
For the molecule `CC(C)C[C@H](CO)Nc1nc2ccc(Oc3ccnc4ccccc34)cc2s1` [Example 245, (R)-4-methyl-2-(6-(quinolin-4-yloxy)benzo[d]thiazol-2-ylamino)pentan-1-ol], the inhibition at 1 µM on kinase domain of cKIT (compounds of Table 3) worked out at 16%; in test [1] (compounds of Table 3) it was 53%; in test [2] (compounds of Table 3), 81%; in test [3] (compounds of Table 3), 100%; on kinase domain of PDGFRβ (compounds of Table 3), 21%.
The matching figures for `O[C@@H]1CCCC[C@H]1Nc1nc2ccc(Oc3ccnc(-c4cnn(CCF)c4)c3)cc2s1` [Example 259, (1R,2R)-2-(6-(2-(1-(2-fluoroethyl)-1H-pyrazol-4-yl)pyridin-4-yloxy)benzo[d]thiazol-2-ylamino)cyclohexanol]: 24%, 100%, 98%, 100% and 6%.
Turning to `O[C@@H]1CCCC[C@H]1Nc1nc2ccc(Oc3ccnc(-c4ncco4)c3)cc2s1` [Example 372, (1R,2R)-2-(6-(2-(oxazol-2-yl)pyridin-4-yloxy)benzo[d]thiazol-2-ylamino)cyclohexanol], the inhibition at 1 µM on kinase domain of cKIT amounted to 21%; in test [1] (MCSF dependent MNFS60 cells), 75%; in test [2] (HEK293H cells), 88%; in test [3], 100%; at kinase domain of PDGFRβ, 8%.
